We go through 56 compounds from PMC5708365, “Histone lysine methyltransferase structure activity relationships that allow for segregation of G9a inhibition and anti-Plasmodium activity” (MedChemComm, 2017).

The term pIC50 denotes the negative decadic logarithm of the IC50, by convention in mol/L.

pIC50: −log10 of the molar value.

One assay addresses T1, G9a (Homo sapiens, UniProt Q96KQ7).
T1 sequence (Q96KQ7 1-1210): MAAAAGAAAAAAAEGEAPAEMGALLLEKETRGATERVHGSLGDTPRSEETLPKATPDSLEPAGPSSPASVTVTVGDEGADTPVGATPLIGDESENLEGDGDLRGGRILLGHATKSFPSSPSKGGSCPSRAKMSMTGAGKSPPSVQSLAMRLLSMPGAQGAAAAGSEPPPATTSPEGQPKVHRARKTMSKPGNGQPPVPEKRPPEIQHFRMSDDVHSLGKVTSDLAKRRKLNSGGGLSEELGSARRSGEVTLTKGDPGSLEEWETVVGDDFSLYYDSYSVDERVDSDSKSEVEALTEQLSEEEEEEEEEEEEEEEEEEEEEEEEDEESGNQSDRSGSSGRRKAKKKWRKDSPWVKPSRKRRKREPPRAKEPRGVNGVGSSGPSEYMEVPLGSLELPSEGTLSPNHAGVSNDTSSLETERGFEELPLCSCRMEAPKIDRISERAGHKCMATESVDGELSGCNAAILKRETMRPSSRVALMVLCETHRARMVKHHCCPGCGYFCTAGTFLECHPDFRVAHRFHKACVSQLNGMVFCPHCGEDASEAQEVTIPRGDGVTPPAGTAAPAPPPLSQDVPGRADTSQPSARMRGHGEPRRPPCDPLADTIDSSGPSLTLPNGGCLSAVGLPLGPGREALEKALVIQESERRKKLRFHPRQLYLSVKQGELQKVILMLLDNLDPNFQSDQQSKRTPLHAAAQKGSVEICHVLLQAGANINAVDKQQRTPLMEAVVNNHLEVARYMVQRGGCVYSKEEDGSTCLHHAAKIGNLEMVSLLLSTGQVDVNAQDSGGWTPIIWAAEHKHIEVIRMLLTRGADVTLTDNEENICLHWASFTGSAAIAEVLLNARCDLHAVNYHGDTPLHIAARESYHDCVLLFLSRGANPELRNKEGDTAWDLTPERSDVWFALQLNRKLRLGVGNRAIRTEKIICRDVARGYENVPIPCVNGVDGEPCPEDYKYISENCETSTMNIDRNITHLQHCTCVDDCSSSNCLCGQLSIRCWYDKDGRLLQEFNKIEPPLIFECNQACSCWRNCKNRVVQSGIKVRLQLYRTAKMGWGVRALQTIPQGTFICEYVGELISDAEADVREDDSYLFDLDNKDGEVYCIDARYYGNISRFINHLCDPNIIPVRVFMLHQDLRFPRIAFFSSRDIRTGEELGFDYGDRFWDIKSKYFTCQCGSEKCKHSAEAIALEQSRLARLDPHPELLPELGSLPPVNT
Conditions: SPA, 5 nM G9a, H3 1-25 peptide 0.8 μM, 3H-SAM 8 μM.
As to `COc1cc2nc(N3CC(C)CC(C)C3)nc(NC3CCN(Cc4ccccc4)CC3)c2cc1OC` (stereo not drawn) [compound 14], the “G9a IC50” value is “inactive against G9a”.
The same measure, in the same setting: the result for `COc1cc2c(NC3CCN(C)CC3)nc(N3CCCN(C)CC3)nc2cc1OCc1ccccc1` [compound 60] reads “complete loss of G9a activity”.
On to `COc1cc2c(NC3CCN(Cc4ccccc4)CC3)nc(N3CCN(C)CC3)nc2cc1OCc1ccccc1` [compound 61], for which the “G9a IC50” value is “virtually no G9a inhibition”.
Same read-out and setting: in the case of `COc1cc2c(NC3CCN(Cc4ccccc4)CC3)nc(N3CCCCC3)nc2cc1OCc1ccccc1` [compound 62] it was “virtually no G9a inhibition”.

The same assay, now with this note: read-out: G9a IC50; SPA, 5 nM G9a, H3 1-25 peptide 0.8 μM, 3H-SAM 8 μM.
Regarding `COc1cc2nc(N3CCCCCC3)nc(NC3CCN(Cc4ccccc4)CC3)c2cc1OC` [compound 9], the negative logarithm of the IC50 (pIC50) is 6.48.
Still for that read-out and setting: the result for `COc1cc2nc(N3CCC(C)CC3)nc(NC3CCN(Cc4ccccc4)CC3)c2cc1OC` [compound 11] reads 5.88; that for `COc1cc2nc(N3CCC(OC)CC3)nc(NC3CCN(Cc4ccccc4)CC3)c2cc1OC` [compound 12], 6.24.
Same read-out and setting: in the case of `COc1cc2nc(N3CCC(N(C)C)CC3)nc(NC3CCN(Cc4ccccc4)CC3)c2cc1OC` [compound 13] it was 6.30; in that of `COc1cc2nc(N3CC(C)CC(C)C3)nc(NC3CCN(Cc4ccccc4)CC3)c2cc1OC` (stereo not drawn) [compound 14], about 5.00; in that of `COc1cc2nc(N3CCC(c4ccccc4)CC3)nc(NC3CCN(Cc4ccccc4)CC3)c2cc1OC` [compound 16], under 5.00.
As for `COc1cc2nc(N3CCN(C)CC3)nc(NC3CCN(Cc4cccc(C)c4)CC3)c2cc1OC` [compound 18], the pIC50 is 6.94.
Same read-out and setting: the result for `COc1cc2nc(N3CCN(C)CC3)nc(NC3CCN(Cc4ccc(C)cc4)CC3)c2cc1OC` [compound 19] reads 7.11.
The same measure, in the same setting: the result for `COc1cc2nc(N3CCN(C)CC3)nc(NC3CCN(Cc4ccccc4C)CC3)c2cc1OC` [compound 20] reads 6.77; that for `COc1cc2nc(N3CCN(C)CC3)nc(NC3CCN(Cc4ccc(F)cc4)CC3)c2cc1OC` [compound 21], 6.95; that for `COc1cc2nc(N3CCN(C)CC3)nc(NC3CCN(Cc4cccc(F)c4)CC3)c2cc1OC` [compound 22], 6.88.
On the same count and under the same terms, the result for `COc1cc2nc(N3CCN(C)CC3)nc(NC3CCN(Cc4ccccc4F)CC3)c2cc1OC` [compound 23] reads 6.94.
With `COc1cccc(CN2CCC(Nc3nc(N4CCN(C)CC4)nc4cc(OC)c(OC)cc34)CC2)c1` [compound 24], the pIC50 is 6.89.
Still for that read-out and setting: in the case of `COc1cc2nc(N3CCCCC3)nc(NC3CCN(Cc4cccc(C)c4)CC3)c2cc1OC` [compound 25] it was 6.06; in that of `COc1cc2nc(N3CCCCC3)nc(NC3CCN(Cc4ccc(C)cc4)CC3)c2cc1OC` [compound 26], 6.16; in that of `COc1cc2nc(N3CCCCC3)nc(NC3CCN(Cc4ccccc4C)CC3)c2cc1OC` [compound 27], about 6.00.
On the same count and under the same terms, in the case of `COc1cc2nc(N3CCCCC3)nc(NC3CCN(Cc4ccc(F)cc4)CC3)c2cc1OC` [compound 28] it was 5.92; in that of `COc1cc2nc(N3CCCCC3)nc(NC3CCN(Cc4cccc(F)c4)CC3)c2cc1OC` [compound 29], about 6.00.
Still for that read-out and setting: in the case of `COc1cc2nc(N3CCN(C)CC3)nc(NC3CCCN(Cc4ccccc4)C3)c2cc1OC` (stereo not drawn) [compound 30] it was about 6.00; in that of `COc1cc2nc(N3CCCCC3)nc(NC3CCCN(Cc4ccccc4)C3)c2cc1OC` (stereo not drawn) [compound 31], about 6.00; in that of `COc1cc2nc(N3CCCCC3)nc(NC3CCN(Cc4ccccc4)C3)c2cc1OC` (stereo not drawn) [compound 33], 6.08.
With `COc1cc2nc(N3CCN(c4ccccn4)CC3)nc(NC3CCN(Cc4ccccc4)C3)c2cc1OC` (stereo not drawn) [compound 34], the pIC50 is about 5.00.
Same read-out and setting: in the case of `COc1cc2nc(N3CCN(c4ccccn4)CC3)nc(NC3CCN(C(=O)c4ccccc4)CC3)c2cc1OC` [compound 35] it was under 5.00; in that of `COc1cc2nc(N3CCCCC3)nc(NC3CCN(C(=O)c4ccccc4)CC3)c2cc1OC` [compound 36], under 5.00; in that of `COc1cc2nc(N3CC(C)CC(C)C3)nc(NC3CCN(C(C)=O)CC3)c2cc1OC` (stereo not drawn) [compound 37], under 6.00.
Same read-out and setting: the result for `COc1cc2nc(N3CCN(c4ccccn4)CC3)nc(NC3CCN(C)CC3)c2cc1OC` [compound 41] reads under 6.00; that for `COc1cc2nc(N3CCCN(C)CC3)nc(NC3CCN(CC4CCCCC4)CC3)c2cc1OC` [compound 44], 8.00.
Still for that read-out and setting: the result for `COc1cc2nc(N3CCN(C)CC3)nc(NC3CCN(CC4CCCCC4)CC3)c2cc1OC` [compound 45] reads 7.60; that for `COc1cc2nc(N3CCCCC3)nc(NC3CCN(CC4CCCCC4)CC3)c2cc1OC` [compound 46], 6.53; that for `COc1cc2nc(N3CCCN(C)CC3)nc(NC3CCN(C4CCCCC4)CC3)c2cc1OC` [compound 48], 7.26.
With `COc1cc2nc(N3CCCN(C)CC3)nc(NC3CCN(C(C)C)CC3)c2cc1OC` [compound 51], the pIC50 is 7.26.
On the same count and under the same terms, the result for `COc1cc2nc(N3CCN(C)CC3)nc(NC3CCN(C(C)C)CC3)c2cc1OC` [compound 52] reads 6.91; that for `COc1cc2nc(N3CCCCC3)nc(NC3CCN(C(C)C)CC3)c2cc1OC` [compound 54], 6.50; that for `COc1cc2nc(N3CCN(C)CC3)nc(NC3CCCCC3)c2cc1OC` [compound 55], 5.19.
Still for that read-out and setting: the result for `COc1cc2nc(N3CCN(C)CC3)nc(Nc3ccccc3)c2cc1OC` [compound 57] reads under 5.00.
As to `COc1cc2nc(N3CCCCC3)nc(Nc3ccccc3)c2cc1OC` [compound 58], the negative-log IC50 (pIC50) is under 5.00.
As to `COc1cc2nc(N3CC(C)CC(C)C3)nc(Nc3ccccc3)c2cc1OC` (stereo not drawn) [compound 59], the pIC50 is under 5.00.
On the same count and under the same terms, in the case of `COc1cc2c(NC3CCN(C)CC3)nc(N3CCCN(C)CC3)nc2cc1OCc1ccccc1` [compound 60] it was under 6.00; in that of `COc1cc2c(NC3CCN(Cc4ccccc4)CC3)nc(N3CCN(C)CC3)nc2cc1OCc1ccccc1` [compound 61], about 5.00; in that of `COc1cc2c(NC3CCN(Cc4ccccc4)CC3)nc(N3CCCCC3)nc2cc1OCc1ccccc1` [compound 62], under 4.30.
As to `COc1cc2c(NC3CCN(C(C)C)CC3)nc(N3CCN(C)CC3)nc2cc1OCCCN1CCCCC1` [compound 68], the pIC50 is 8.40.
The same measure, in the same setting: in the case of `COc1cc2c(NC3CCN(Cc4ccccc4)CC3)nc(N3CCCN(C)CC3)nc2cc1OCCCN(C)C` [compound 69] it was over 8.52.
The same measure, in the same setting: the result for `COc1cc2c(NC3CCN(Cc4ccccc4)CC3)nc(N3CCN(C)CC3)nc2cc1OCCCN(C)C` [compound 70] reads 8.10.
On the same count and under the same terms, in the case of `CCCCCCCCOc1cc2nc(N3CCCN(C)CC3)nc(NC3CCN(Cc4ccccc4)CC3)c2cc1OC` [compound 73] it was 6.68; in that of `CCCCCCOc1cc2nc(N3CCCN(C)CC3)nc(NC3CCN(Cc4ccccc4)CC3)c2cc1OC` [compound 74], 7.41.
With `CCCCCCOc1cc2nc(NCCCN(C)C)nc(NC3CCN(Cc4ccccc4)CC3)c2cc1OC` [compound 75], the pIC50 was 7.41.
In the case of `CCCCCCCCOc1cc2nc(N3CCN(C)CC3)nc(NC3CCN(Cc4ccccc4)CC3)c2cc1OC` [compound 76], the pIC50 is 5.99.
On the same count and under the same terms, the result for `CCCCCCOc1cc2nc(N3CCN(C)CC3)nc(NC3CCN(Cc4ccccc4)CC3)c2cc1OC` [compound 77] reads 6.94.
Same read-out and setting: in the case of `CCCCCOc1cc2nc(N3CCN(C)CC3)nc(NC3CCN(Cc4ccccc4)CC3)c2cc1OC` [compound 78] it was about 6.00; in that of `CCCCOc1cc2nc(N3CCN(C)CC3)nc(NC3CCN(Cc4ccccc4)CC3)c2cc1OC` [compound 79], 6.17.
In the case of `CCCCOc1cc2nc(N3CCN(C)CC3)nc(NC3CCN(C(C)C)CC3)c2cc1OC` [compound 80], the pIC50 was 6.07.
As for `COc1cc2c(NC3CCN(Cc4ccccc4)CC3)nc(N3CCN(C)CC3)nc2cc1OCCC(C)C` [compound 81], the negative logarithm of the IC50 (pIC50) is 5.27.
Still for that read-out and setting: the result for `COc1cc2c(NC3CCN(C(C)C)CC3)nc(N3CCN(C)CC3)nc2cc1OCCC(C)C` [compound 82] reads 5.69; that for `COc1cc2c(NC3CCN(Cc4ccccc4)CC3)nc(N3CCN(C)CC3)nc2cc1OCCCSC` [compound 83], 6.65; that for `COc1cc2c(NC3CCN(Cc4ccccc4)CC3)nc(N3CCN(C)CC3)nc2cc1OCCCCSC` [compound 84], 6.24.
Same read-out and setting: in the case of `COc1cc2cc(N3CCC(OC)CC3)nc(NC3CCN(Cc4ccccc4)CC3)c2cc1OC` [compound 86, N-(1-Benzylpiperidin-4-yl)-6,7-dimethoxy-3-(4-methoxypiperidin-1-yl)isoquinolin-1-amine] it was under 4.30.
